# Test results reported in patent publication US20250275982A1, “SOLID FORM FORMULATION COMPRISING CHROMIUM OR COPPER OR A VITAMIN, COMPOSITIONS AND USES THEREOF” (ALESCO S.R.L., priority 2019, published 2025).
# Counter-ions that a name gives are not always drawn.
# Key:
# Assay type in all cases: cell-based
# [1] = tested on: differentiated mouse myoblasts; experiment: Glucose uptake study: intracellular glucose colorimetric assay in insulin-treated differentiated mouse myoblasts
# Description: (§1) In vitro efficacy study: evaluation of the modulation of the carbohydrate metabolism by two compositions comprising a chromium salt (Composition 1 and Composition 2) in a culture of differentiated mouse myoblasts.
# (§2) The following endpoints were considered:—glucose uptake, by means of intracellular glucose assay; • expression of GLUT-4, insulin-sensitive glucose transporter; and • ATP content, the primary source of energy for cellular biochemical reactions.
# (§3) The experimental model used in this study is differentiated mouse myoblasts (ATCC Number: CRL-1772, lot 70013341), cultured in Dulbecco's Modified Eagle's Medium (DMEM) supplemented with 10% foetal bovine serum at 37° C., 5% CO2. The formation of myotubes is induced by adding horse serum.
# (§4) The experimental protocol provided for: • Untreated control cells (CTR-); • Insulin-treated control cells (100 nM); • Insulin-treated cells and the Compounds in question (Composition 1 and Composition 2); • Insulin-treated cells and the reference Compound (metformin).
# (§5) Three concentrations of each composition under study (Composition 1 and 2) were tested: 500 μM, 100 µM and 50 μM (Cr). The preparation of the samples involved the use of DMSO as solvent.
# (§6) The reference Compound (metformin hydrochloride) was tested at 2000 μm. • The treatment of the cells with Composition 1 and 2 and reference Composition extended for 24 hours.
# (§7) The cultures were then treated with insulin (100 nM) for 4 hours. A source of glucose was added to the media in the glucose uptake evaluation study. The treatments were conducted in quadruplicate.
# (§8) At the end of the treatments the cells were lysed to obtain a cell homogenate on which it was assayed: • glucose, by means of colorimetric assay; • ATP, by means of colorimetric assay; • GLUT-4, by means of ELISA technique.
# (§9) Commercially available colorimetric and ELISA kits were used.
# (§10) The colorimetric kits use a specific probe, a mixture of reaction enzymes and a curve with known amounts of each standard.
# (§11) The data obtained in the experimental groups treated with the samples subject of the study were subjected to statistical analysis and compared with each other and with insulin according to the t-test. Variations are considered significant for p<0.05.
# Glucose assay: the results (Table 2 and FIG. 1) are expressed as mean content±st.dev. (expressed in nanomoles) and as a mean % variation with respect to treatment with insulin. Statistically significant data with respect to insulin are reported with *, while ^∘ indicates differences between tested compounds.
# GLUT-4 = GLUT-4 study: ELISA of GLUT-4 in cell homogenate of insulin-treated differentiated mouse myoblasts
# Description: as §1, §2, §3, §4, §5, §6, §7, §8, §9
# ELISA kits exploit the competitive binding of an antigen (in this case GLUT-4) with its primary antibody. The immune complex (antigen-antibody) is in turn recognised by a secondary antibody conjugated to a peroxidase. The addition of the peroxidase substrate produces a colorimetric reaction with intensity proportional to the amount of immune complexes present and thus to the amount of bound target molecule. Quantitative determination exploits a calibration curve constructed with known and increasing concentrations of standard marker.
# as §11
# GLUT-4 assay: the results (Table 3 and FIG. 2) are expressed as mean content±st.dev. (expressed in μg/L) and as a mean % variation with respect to treatment with insulin. Statistically significant data with respect to insulin are reported with *, while ^∘ indicates differences between tested compounds.
# [2] = tested on: differentiated mouse myoblasts; experiment: ATP study: colorimetric assay of ATP content in insulin-treated differentiated mouse myoblasts
# Description: as §1, §2, §3, §4, §5, §6, §7, §8, §9, §10, §11
# ATP assay: the results (Table 4 and FIG. 3) are expressed as mean content±st.dev. (expressed in nanomoles) and as a mean % variation with respect to treatment with insulin. Statistically significant data with respect to insulin are reported with *, while ^∘ indicates differences between tested compounds.
# [3] = 2000 um for 24 hours + insulin 100 nM for 4 hours
# [4] = insulin 100 nM for 4 hours, insulin-treated control cells
# [5] = 50 μM (Cr) for 24 hours + insulin 100 nM for 4 hours
# [6] = 100 μM (Cr) for 24 hours + insulin 100 nM for 4 hours
# [7] = 500 μM (Cr) for 24 hours + insulin 100 nM for 4 hours
# [8] = at 500 µM and 100 µM, significance vs. insulin p<0.05
molecule,measurement,setting,value
"CN(C)C(=N)N=C(N)N [Metformin, metformin hydrochloride]",% var. vs. insulin (glucose assay),[1]; 2000 um + insulin,24.6%
same,"mean value (glucose assay, mean content)",[1]; [3],11.73 nmol
same,% var. vs. insulin (GLUT-4 assay),GLUT-4; 2000 um + insulin,28.0%
same,"mean value (GLUT-4 assay, mean content)",GLUT-4; [3],6.71 µg/L
same,% var. vs. insulin (ATP assay),[2]; 2000 um + insulin,17.6%
same,"mean value (ATP assay, mean content)",[2]; [3],4.61 nmol
Insulin: insulin (100 nM) used to treat control cells and all treated cultures,"mean value (glucose assay, mean content)",[1]; [4],9.42 nmol
same,"mean value (GLUT-4 assay, mean content)",GLUT-4; [4],5.24 µg/L
same,"mean value (ATP assay, mean content)",[2]; [4],3.92 nmol
chromium (III) picolinate [CR picolinate],"mean value (glucose assay, mean content)",[1]; [5],10.24 nmol
same,% var. vs. insulin (glucose assay),[1]; 50 μM + insulin,8.7%
same,"mean value (glucose assay, mean content)",[1]; [6],11.08 nmol
same,% var. vs. insulin (glucose assay),[1]; 100 μM + insulin,17.6%
same,"mean value (glucose assay, mean content)",[1]; [7],11.24 nmol
same,% var. vs. insulin (glucose assay),[1]; 500 μM + insulin,19.3%
same,"glucose uptake, behaviour over the three concentrations, in words","[1]; 500, 100 and 50 μM",showed a dose-dependent behaviour
same,"insulin-dependent glucose uptake, result in words",[1]; [8],effective in significantly increasing insulin-dependent glucose uptake
same,"mean value (GLUT-4 assay, mean content)",GLUT-4; [5],5.60 µg/L
same,% var. vs. insulin (GLUT-4 assay),GLUT-4; 50 μM + insulin,6.8%
same,"mean value (GLUT-4 assay, mean content)",GLUT-4; [6],6.35 µg/L
same,% var. vs. insulin (GLUT-4 assay),GLUT-4; 100 μM + insulin,21.1%
same,"mean value (GLUT-4 assay, mean content)",GLUT-4; [7],6.50 µg/L
same,% var. vs. insulin (GLUT-4 assay),GLUT-4; 500 μM + insulin,24.0%
same,"GLUT-4 levels, behaviour over the three concentrations, in words","GLUT-4; 500, 100 and 50 μM",showed a dose-dependent behaviour
same,"levels of GLUT-4 carrier, result in words",GLUT-4; [8],effective in significantly increasing the levels of GLUT-4 carrier
same,"mean value (ATP assay, mean content)",[2]; [5],4.09 nmol
same,% var. vs. insulin (ATP assay),[2]; 50 μM + insulin,4.3%
same,"mean value (ATP assay, mean content)",[2]; [6],4.78 nmol
same,% var. vs. insulin (ATP assay),[2]; 100 μM + insulin,22.1%
same,"mean value (ATP assay, mean content)",[2]; [7],5.35 nmol
same,% var. vs. insulin (ATP assay),[2]; 500 μM + insulin,36.5%
same,"intracellular ATP, behaviour over the three concentrations, in words","[2]; 500, 100 and 50 μM",showed a dose-dependent behaviour
same,"intracellular ATP, statistical comparison between the compositions, in words",[2]; at 50 μM,does not show performance differences
same,"levels of intracellular ATP, result in words",[2]; [8],effective in significantly increasing the levels of intracellular ATP
